Data as given in US7863014B2 (priority 2001, dated 2011).

Experiments:
[1] = biological target: M. tuberculosis Ppnk protein (Mycobacterium tuberculosis, UniProt P9WHV7); assay type: biochemical, M. tuberculosis H37Rv
[2] = test system: polyphosphate-dependent NAD kinase from Micrococcus flavus; assay type: biochemical

M. tuberculosis Ppnk protein, sequence (P9WHV7 whole entry): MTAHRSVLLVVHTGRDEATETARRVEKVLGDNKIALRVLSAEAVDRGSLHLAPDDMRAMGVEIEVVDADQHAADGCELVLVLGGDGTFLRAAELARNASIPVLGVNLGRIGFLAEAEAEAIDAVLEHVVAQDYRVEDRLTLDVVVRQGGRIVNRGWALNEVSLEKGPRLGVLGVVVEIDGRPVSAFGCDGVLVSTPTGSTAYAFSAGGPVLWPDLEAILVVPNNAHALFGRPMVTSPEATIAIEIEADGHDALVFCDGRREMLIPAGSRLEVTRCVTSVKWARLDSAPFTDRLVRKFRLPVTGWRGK

| Compound | Activation by metal ions [1] | Activation by metal ions [2] | further results |
| --- | --- | --- | --- |
| Nc1ncnc2c1ncn2[C@@H]1O[C@H](COP(=O)(O)OP(=O)(O)OP(=O)(O)O)[C@@H](O)[C@H]1O [ATP] |  |  | ATP/polyphosphate reaction ratio [1]: ATP (100%); ATP/polyphosphate reaction ratio [2]: ATP (100%) |
| [Cl][Al]([Cl])[Cl] [AlCl3] | AlCl3 (0%) | AlCl3 (0%) |  |
| [Ca+2].[Cl-].[Cl-] [CaCl2] | CaCl2 (34%) | CaCl2 (65%) |  |
| [Cl-].[Cl-].[Co+2] [CoCl2] | CoCl2 (55%) | CoCl2 (51%) |  |
| [Cl][Cu][Cl] [CuCl2] | CuCl2 (8%) | CuCl2 (33%) |  |
| [Cl-].[Cl-].[Mg+2] [MgCl2] | MgCl2 (100%) | MgCl2 (100%) |  |
| [Cl][Mn][Cl] [MnCl2] | MnCl2 (268%) | MnCl2 (143%) |  |
| [Cl-].[Cl-].[Zn+2] [ZnCl2] | ZnCl2 (30%) | ZnCl2 (30%) |  |
| O=P1(O)OP(=O)(O)OP(=O)(O)OP(=O)(O)OP(=O)(O)OP(=O)(O)O1 [hexametaphosphate] |  |  | Polyphosphate specificity [1]: (72%); Polyphosphate specificity [2]: (58%) |
